Experimental data: US9302999B2, “Substituted triazoles as herbicides” (E. I. DU PONT DE NEMOURS AND COMPANY, priority 2012, dated 2016)

Key:
Assay type in all cases: in vivo
[1] = system: wheat (Triticum aestivum); test: Test A pre-/postemergence: wheat; settings: for Wheat plant response rating: Postemergence; for Plant response rating, Wheat: Preemergence
Summary of the method: (§1)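 Plants in loam–sand blend were treated with test chemicals in non-phytotoxic solvent with surfactant, either as preemergence directed soil spray or postemergence at 2–10 cm, one- to two-leaf stage. After about ten days in greenhouse, injury was rated visually against untreated controls on a 0–100 scale (100 = complete control).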

[2] = system: corn (Zea mays); test: Test A pre-/postemergence: corn; settings: for Corn plant response rating: Postemergence; for Plant response rating, Corn: Preemergence
Summary of the method: as §1

[3] = system: foxtail, giant (giant foxtail, Setaria faberii); test: Test A pre-/postemergence: foxtail, giant; settings: for Foxtail, Giant plant response rating: Postemergence; for Plant response rating, Foxtail, Giant: Preemergence
Summary of the method: as §1

[4] = system: barnyardgrass (Echinochloa crus-galli); test: Test C flooded paddy test: barnyardgrass; settings: scale 0 to 100 (0 no effect, 100 complete control)
Summary of the method: (§2)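 Rating: visual, 0–100 (100 = complete control), versus untreated controls after 13 to 15 greenhouse days. Treatment went into paddy water held at 3 cm over the soil, on plants grown to two leaves.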

[5] = system: sedge, umbrella (small-flower umbrella sedge, Cyperus difformis); test: Test C flooded paddy test: sedge, umbrella; settings: scale 0 to 100 (0 no effect, 100 complete control)
Summary of the method: as §2

[6] = system: morningglory (Ipomoea spp.); test: Test A pre-/postemergence: morningglory; settings: for Morningglory plant response rating: Postemergence; for Plant response rating, Morningglory: Preemergence
Summary of the method: as §1

[7] = system: rice (Oryza sativa); test: Test C flooded paddy test: rice; settings: scale 0 to 100 (0 no effect, 100 complete control)
Summary of the method: as §2

[8] = system: ducksalad (Heteranthera limosa); test: Test C flooded paddy test: ducksalad; settings: scale 0 to 100 (0 no effect, 100 complete control)
Summary of the method: as §2

[9] = system: crabgrass, large (large crabgrass, Digitaria sanguinalis); test: Test A pre-/postemergence: crabgrass, large; settings: for Crabgrass, Large plant response rating: Postemergence; for Plant response rating, Crabgrass, Large: Preemergence
Summary of the method: as §1

[10] = system: velvetleaf (Abutilon theophrasti); test: Test A pre-/postemergence: velvetleaf; settings: for Velvetleaf plant response rating: Postemergence; for Plant response rating, Velvetleaf: Preemergence
Summary of the method: as §1

[11] = system: pigweed (Amaranthus retroflexus); test: Test A pre-/postemergence: pigweed; settings: for Pigweed plant response rating: Postemergence; for Plant response rating, Pigweed: Preemergence
Summary of the method: as §1

[12] = system: barnyardgrass (Echinochloa crus-galli); test: Test A pre-/postemergence: barnyardgrass; settings: for Barnyardgrass plant response rating: Postemergence; for Plant response rating, Barnyardgrass: Preemergence
Summary of the method: as §1

[13] = 125 g ai/ha, 0 to 100 scale, 0 is no effect, 100 is complete control
[14] = 500 g ai/ha, visual rating on 0 to 100 scale (0 no effect, 100 complete control), approximately ten days
[15] = 125 g ai/ha, 0 to 100 scale (0 no effect, 100 complete control)
[16] = 500 g ai/ha, 0 to 100 scale, 0 is no effect, 100 is complete control
[17] = Flood (flooded paddy test), 62 g ai/ha, visual rating after 13 to 15 days
[18] = Flood (flooded paddy test), 125 g ai/ha, visual rating after 13 to 15 days
[19] = Flood (flooded paddy test), 250 g ai/ha, visual rating after 13 to 15 days

## Cc1nn(-c2cccc(C(F)(F)F)n2)nc1C(=O)c1cccc(C(F)(F)F)c1 [Compound 57]
[1]; [13]
  Wheat plant response rating: 0
[1]; [14]
  Wheat plant response rating: 0
[1]; [15]
  Plant response rating, Wheat: 0
[1]; [16]
  Plant response rating, Wheat: 0
[2]; [13]
  Corn plant response rating: 0
[2]; [14]
  Corn plant response rating: 0
[2]; [15]
  Plant response rating, Corn: 0
[2]; [16]
  Plant response rating, Corn: 0
[3]; [13]
  Foxtail, Giant plant response rating: 0
[3]; [14]
  Foxtail, Giant plant response rating: 0
[3]; [15]
  Plant response rating, Foxtail, Giant: 0
[3]; [16]
  Plant response rating, Foxtail, Giant: 0
[4]; [17]
  Plant response rating, Barnyardgrass: 0
[4]; [18]
  Plant response rating, Barnyardgrass: 0
[4]; [19]
  Plant response rating, Barnyardgrass: 0
[4]; Flood, 31 g ai/ha
  Plant response rating, Barnyardgrass: 0
[5]; [17]
  Plant response rating, Sedge, Umbrella: 0
[5]; [18]
  Plant response rating, Sedge, Umbrella: 0
[5]; [19]
  Plant response rating, Sedge, Umbrella: 0
[5]; Flood, 31 g ai/ha
  Plant response rating, Sedge, Umbrella: 0
[6]; [13]
  Morningglory plant response rating: 0
[6]; [14]
  Morningglory plant response rating: 0
[6]; [15]
  Plant response rating, Morningglory: 0
[6]; [16]
  Plant response rating, Morningglory: 0
[7]; [17]
  Plant response rating, Rice: 0
[7]; [18]
  Plant response rating, Rice: 0
[7]; [19]
  Plant response rating, Rice: 0
[7]; Flood, 31 g ai/ha
  Plant response rating, Rice: 0
[8]; [17]
  Plant response rating, Ducksalad: 0
[8]; [18]
  Plant response rating, Ducksalad: 0
[8]; [19]
  Plant response rating, Ducksalad: 0
[8]; Flood, 31 g ai/ha
  Plant response rating, Ducksalad: 0
[9]; [13]
  Crabgrass, Large plant response rating: 0
[9]; [14]
  Crabgrass, Large plant response rating: 10
[9]; [15]
  Plant response rating, Crabgrass, Large: 0
[9]; [16]
  Plant response rating, Crabgrass, Large: 0
[10]; [13]
  Velvetleaf plant response rating: 0
[10]; [14]
  Velvetleaf plant response rating: 0
[10]; [15]
  Plant response rating, Velvetleaf: 0
[10]; [16]
  Plant response rating, Velvetleaf: 0
[11]; [13]
  Pigweed plant response rating: 0
[11]; [14]
  Pigweed plant response rating: 10
[11]; [15]
  Plant response rating, Pigweed: 0
[11]; [16]
  Plant response rating, Pigweed: 0
[12]; [13]
  Barnyardgrass plant response rating: 0
[12]; [14]
  Barnyardgrass plant response rating: 0
[12]; [15]
  Plant response rating, Barnyardgrass: 0
[12]; [16]
  Plant response rating, Barnyardgrass: 0

## Cc1nn(-c2ccc(C(F)(F)F)cc2)nc1C(=O)c1cccc(C(F)(F)F)c1 [Compound 45]
[1]; [13]
  Wheat plant response rating: 10
[1]; [14]
  Wheat plant response rating: 20
[1]; [15]
  Plant response rating, Wheat: 0
[1]; [16]
  Plant response rating, Wheat: 0
[2]; [13]
  Corn plant response rating: 10
[2]; [14]
  Corn plant response rating: 20
[2]; [15]
  Plant response rating, Corn: 0
[2]; [16]
  Plant response rating, Corn: 0
[3]; [13]
  Foxtail, Giant plant response rating: 20
[3]; [14]
  Foxtail, Giant plant response rating: 50
[3]; [15]
  Plant response rating, Foxtail, Giant: 50
[3]; [16]
  Plant response rating, Foxtail, Giant: 60
[4]; [17]
  Plant response rating, Barnyardgrass: 0
[4]; [18]
  Plant response rating, Barnyardgrass: 0
[4]; [19]
  Plant response rating, Barnyardgrass: 0
[4]; Flood, 31 g ai/ha
  Plant response rating, Barnyardgrass: 0
[5]; [17]
  Plant response rating, Sedge, Umbrella: 0
[5]; [18]
  Plant response rating, Sedge, Umbrella: 0
[5]; [19]
  Plant response rating, Sedge, Umbrella: 0
[5]; Flood, 31 g ai/ha
  Plant response rating, Sedge, Umbrella: 0
[6]; [13]
  Morningglory plant response rating: 40
[6]; [14]
  Morningglory plant response rating: 80
[6]; [15]
  Plant response rating, Morningglory: 0
[6]; [16]
  Plant response rating, Morningglory: 10
[7]; [17]
  Plant response rating, Rice: 0
[7]; [18]
  Plant response rating, Rice: 0
[7]; [19]
  Plant response rating, Rice: 0
[7]; Flood, 31 g ai/ha
  Plant response rating, Rice: 0
[8]; [17]
  Plant response rating, Ducksalad: 0
[8]; [18]
  Plant response rating, Ducksalad: 0
[8]; [19]
  Plant response rating, Ducksalad: 0
[8]; Flood, 31 g ai/ha
  Plant response rating, Ducksalad: 0
[9]; [13]
  Crabgrass, Large plant response rating: 60
[9]; [14]
  Crabgrass, Large plant response rating: 70
[9]; [15]
  Plant response rating, Crabgrass, Large: 70
[9]; [16]
  Plant response rating, Crabgrass, Large: 70
[10]; [13]
  Velvetleaf plant response rating: 40
[10]; [14]
  Velvetleaf plant response rating: 70
[10]; [15]
  Plant response rating, Velvetleaf: 0
[10]; [16]
  Plant response rating, Velvetleaf: 10
[11]; [13]
  Pigweed plant response rating: 100
[11]; [14]
  Pigweed plant response rating: 100
[11]; [15]
  Plant response rating, Pigweed: 10
[11]; [16]
  Plant response rating, Pigweed: 20
[12]; [13]
  Barnyardgrass plant response rating: 10
[12]; [14]
  Barnyardgrass plant response rating: 10
[12]; [15]
  Plant response rating, Barnyardgrass: 0
[12]; [16]
  Plant response rating, Barnyardgrass: 10
